Earlier results in US20190026423A1, “Cycle Closure Estimation of Relative Binding Affinities and Errors” (Schrödinger, LLC, priority 2013, published 2019).
Like-named read-outs stand apart in the source and are kept apart here.

Target: CDK2-cyclin A receptor (Homo sapiens, UniProt P24941)
Settings: experimental binding free energy
[1] = 6 ligands with crystal structures
[2] = ligands without crystal structures

Row | Compound | ΔG(EXP) [1] [kcal/mol] | ΔG(EXP) [2] [kcal/mol]
1 | Cc1cccc(Nc2nc(OCC3CCCCC3)c3nc[nH]c3n2)c1 [Compound 1h1r] | -7.67 | 
2 | CC(=O)c1ccc(Nc2nc(OCC3CCCCC3)c3nc[nH]c3n2)cc1 [Compound 1oiy] | -9.79 | 
3 | CS(=O)(=O)c1cccc(Nc2nc(OCC3CCCCC3)c3nc[nH]c3n2)c1 [Compound 1oiu] | -9.08 | 

Other lines, results leading:

Row | ΔG(EXP) [1] [kcal/mol] | ΔG(EXP) [2] [kcal/mol] | Compound
4 |  | -8.72 | CCc1cccc(Nc2nc(OCC3CCCCC3)c3nc[nH]c3n2)c1 [Compound 20]
5 |  | -7.04 | Cc1cccc(Nc2nc(OCC3CCCCC3)c3nc[nH]c3n2)c1 [Compound 17]
